Columns and labels:
[1] = no reference given; cited from earlier work
[2] = set-up: method as in EFSA CEF Panel 2015; conditions: ref EFSA CEF Panel 2015; cited from earlier work
[3] = Cumulative urinary excretion after IV and oral dosing in piglets
Protocol: Blood samples were collected in heparinized polypropylene tubes, immediately chilled in ice and centrifuged for 10 min at 3,000×g at 4°C, and the supernatant plasma was stored in polypropylene tubes at −20°C until assay. Total urine was filtered through a nylon mesh ( 250μm ) and collected in glass containers and chilled in ice. The volume of each urine sample and the sampling time were recorded. A urine sample was immediately chilled in ice and centrifuged for 10 min at 3,000×g at 4°C and stored at −20°C until assayed.
Analytes were quantified by Acquity UPLC-MS/MS (Waters Corporation).
All TK analyses were performed using the Phoenix® NLME (version 8.0; Pharsight Corporation). The plasma mass concentrations were converted into molar concentrations before analysis.

[4] = Noncompartmental toxicokinetic analysis of plasma after IV dosing in piglets
Protocol: Table 1 summarizes the protocol of the experiments and the plasma and urine datasets further considered for TK analyses. A first experiment (Exp. 1) was performed in 8 male piglets age 42 d ( 20.8±1.6kg BW) to investigate oral BPA TK. […] BPA data obtained after IV BPA administrations had already been used to evaluate human BPA clearance using an allometric approach ([Collet et al. 2015]).
For the IV administrations, BPA powder was dissolved in ethanol–propylene glycol (1:49, vol:vol) at 50mg/mL (Exp.1 and 2) and in ethanol–saline (1:2, vol:vol) at 23mg/mL (Exp. 5).
During the first 24 h of sampling, the piglets were housed individually in stainless steel cages.
(§1) The plasma analytes concentration–time data from individual piglets were used to derive the maximum concentration (Cmax), and the time to maximum concentration (Tmax). The area under the plasma concentration–time curves from dosing time to the time of the last measurable concentration ( AUC0–tlast ) were calculated using the linear trapezoidal rule (Equation 1). (1) AUC0–tlast=∑0tlast(Ci−1+Ci/2)×(ti−ti−1) where Ci is the concentration obtained at the time i ( ti ).
(§2) The area under the plasma concentration time curve from t=0 to infinity ( AUC0–inf ) was obtained using Equation 2. (2) AUC0–inf=AUC0–tlast+AUCtlast–inf where AUCtlast–inf is the area extrapolated from the last observation to infinity, calculated according to Equation 3: (3) AUCtlast–inf=Clast/λz where Clast is the last observed quantifiable plasma concentration, and λz is the slope of the terminal phase, as estimated by linear regression using the best fit option of Phoenix®.

in vivo = experiment: in vivo
Protocol: Table 1 summarizes the protocol of the experiments and the plasma and urine datasets further considered for TK analyses.
For administrations by gavage, BPA powder was dissolved in ethanol–corn oil (1:9, vol:vol) at 100mg/mL (Exp. 1).
as §1, §2

[5] = Population semiphysiologically based 9-compartment TK model (NLME) of plasma and urine data in piglets; conditions: for bioavailability: po; for k el: plasma and urine, other: intravenous and oral (data sets combined), tvK30, elimination rate constant from plasma to urine
Protocol: The NLME model was therefore developed by combining the plasma and urinary data sets from the five TK experiments carried out in piglets, except for the urinary BPA concentration obtained after oral administration of BPA.
Different compartmental models and submodels were tested and compared using the likelihood ratio test (LRT). The primary parameters of the model, namely the volumes of distribution ( VBPA , VBPAG , VBPS , VBPSG ) and the first-order rate constants ( Kij ) and their associated precisions [standard error (SE)] were estimated by minimizing an objective function value (OFV) expressed as minus twice the log of the likelihood estimation ( −2LL ).
The between-subject variability (BSV) of the parameters was evaluated using the exponential model θparameter_i=θtv_parameter×exp(ηi) , where θparameter_i is the parameter estimated for the i^th individual, θtv_parameter is the typical population value of the parameter, and ηi is the deviation associated with the i^th individual from the corresponding value of the parameter at the population level. The distribution of ηi was assumed to be normal with a mean of 0 and a variance ω² . The BSV was reported as a coefficient of variation (CV) in the original scale CV(%)=100× exp (ω^2)−1 .
The residual variance was modeled using a combined additive and proportional error model Cobsij=Cpredij(1+ε1ij)+ε2ij where Cobsij and Cpredij are respectively the j^th observed and predicted concentrations for the i^th individual and ε1ij and ε2ij the multiplicative and additive residual errors.
The bootstrap tool (20 replicates) was used to evaluate the mean, median, SE, and coefficient of variation of the parameter estimates. The predictive ability of the model was checked graphically by plotting Visual Predictive Check plots to compare the observed data with the selected quantiles (here 20th, 50th and 80th percentiles) of data simulated using the model and obtained from 200–1,000 replicates from each animal based on the structure of the original data (i.e., dosing, timing and number of samples).
For the LRT test, the critical value of the χ^2 distribution considered for a given nominal risk and a given number of degrees of freedom was obtained using the Excel function CHISQ.INV.RT().
Figure 1. Schematic representation of the compartmental model. […] The link between the two central compartments was modeled with a compartment (CP2) that should be viewed as the liver. […] The fraction of absorbed BPA that is not hepatically transformed reaches the CP3 via K23 . The exchanges between CP2 and CP3 are bilateral, K32 being the rate constant between CP3 and CP2 and K23 the rate constant between CP2 and CP3. […] It was assumed that no phase-two metabolite other than BPAG (BPSG) was formed.
(12) Bioavailability=K12/K12+K110+K10×(1−K25/K25+K23) with K10 , K12 , K110 , K23; K25 as defined above.

[6] = human; cited from earlier work

SMILES: CC(C)(c1ccc(O)cc1)c1ccc(O)cc1 [BPA, bisphenol A]
- LogP [1]: 3.3
- tolerable daily intake (TDI), fixed temporarily [2]: 4 μg/kg BW per day
- part of the dose eliminated in urine ([3]; 3 h after dosing): About half
- unconjugated compound in urine, fraction of IV dose ([3]; IV BPA and BPS doses): 0.044±0.028%
- time after which plasma concentrations were below the LOQ ([4]; after IV BPA and BPS administration): > 12 h
- AUC0-tlast/dose ([4]; pig, in vivo, iv): 0.34±0.14 μmol×h/L per μmol/kg
- clearance ([4]; pig, in vivo, iv): 56.8 mL/min/kg
- AUClast/dose (in vivo; both, pig, in vivo, po): 0.0024±0.0027 μmol×h/L per μmol/kg BW
- Cl_F (apparent clearance) (in vivo; both, pig, in vivo, po): 21170 ± 20830 mL/min/kg
- Tmax (in vivo; both, pig, in vivo, po, Tmax): 57 ± 33 min
- Tmax (in vivo; both, pig, in vivo, po, time to maximal plasma concentration): ~60 min
- mean fraction of total (parent plus glucuronide) in plasma that is unconjugated (in vivo; oral dosing, piglets): 0.16%
- tvK10, rate constant of unabsorbed compound from the gastrointestinal tract, Mean ([5]; bootstrap mean): 0.223 h⁻¹
- tvK12, rate constant of absorption by enterocytes passing directly into the portal blood, Mean ([5]; bootstrap mean): 0.365 h⁻¹
- tvK23, distribution rate constant liver to plasma, Mean ([5]; bootstrap mean): 1.53 h⁻¹
- tvK32, distribution rate constant, Mean ([5]; bootstrap mean): 3.72 h⁻¹
- tvK34, distribution rate constant, Mean ([5]; bootstrap mean): 5.90 h⁻¹
- tvK43, distribution rate constant, Mean ([5]; bootstrap mean): 3.89 h⁻¹
- tvK110, rate constant of compound absorbed by enterocytes locally subjected to glucuronidation, Mean ([5]; bootstrap mean): 0.349 h⁻¹
- tvK10, rate constant of unabsorbed compound from the gastrointestinal tract, Median ([5]; bootstrap median): 0.219 h⁻¹
- tvK12, rate constant of absorption by enterocytes passing directly into the portal blood, Median ([5]; bootstrap median): 0.371 h⁻¹
- tvK23, distribution rate constant liver to plasma, Median ([5]; bootstrap median): 1.32 h⁻¹
- tvK32, distribution rate constant, Median ([5]; bootstrap median): 3.31 h⁻¹
- tvK34, distribution rate constant, Median ([5]; bootstrap median): 4.14 h⁻¹
- tvK43, distribution rate constant, Median ([5]; bootstrap median): 3.68 h⁻¹
- tvK110, rate constant of compound absorbed by enterocytes locally subjected to glucuronidation, Median ([5]; bootstrap median): 0.318 h⁻¹
- CL renal ([5]; both, pig, in vivo): 0.0333 mL/min/kg
- mean volume of the central compartment ([5]; both, pig, in vivo): 1.0 L/kg
- metabolic hepatic clearance as fraction of plasma clearance ([5]; both, pig, in vivo): higher than 99%
- renal clearance as fraction of plasma clearance estimated by noncompartmental analysis ([5]; both, pig, in vivo): 0.06%
- tvV, volume of the central compartment, Mean ([5]; both, pig, in vivo): 1.03 L/kg
- tvV, volume of the central compartment, Median ([5]; both, pig, in vivo): 1.00 L/kg
- bioavailability ([5]; both, pig, in vivo): 0.5%
- k el ([5]; both, pig, Mean, bootstrap mean): 7.22e-07 s⁻¹
- k el ([5]; both, pig, Median, bootstrap median): 5.56e-07 s⁻¹
- fraction of the absorbed dose glucuronidated in the gut ([5]; oral, % of absorbed dose): 44%
- fraction of the absorbed dose reaching the liver / first-pass glucuronidated in the liver ([5]; oral, % of absorbed dose): 53%
- fraction of the dose reaching the liver unchanged ([5]; oral, % of administered dose): 40.3%
- fraction of the dose subjected to hepatic first-pass effect ([5]; oral, % of administered dose): 39.9%
- hepatic first-pass effect: fraction of compound reaching the liver that is glucuronidated ([5]; oral, % of the fraction reaching the liver): 99%
- Fraction of absorbed BPA undergoing a first-pass effect (gut and liver), Mean ([5]; oral, bootstrap mean): 0.988
- Fraction of administered compound glucuronidated by the gastro-intestinal tract, Mean ([5]; oral, bootstrap mean): 0.360
- Fraction of administered compound reaching the liver by the portal blood flow, Mean ([5]; oral, bootstrap mean): 0.405
- fraction absorbed by the gastro-intestinal tract, Mean ([5]; oral, bootstrap mean): 0.765
- Fraction of absorbed BPA undergoing a first-pass effect (gut and liver), Median ([5]; oral, bootstrap median): 0.989
- Fraction of administered compound glucuronidated by the gastro-intestinal tract, Median ([5]; oral, bootstrap median): 0.340
- Fraction of administered compound reaching the liver by the portal blood flow, Median ([5]; oral, bootstrap median): 0.403
- fraction absorbed by the gastro-intestinal tract, Median ([5]; oral, bootstrap median): 0.766
- CL renal ([5]; pig, in vivo): 0.0333 mL/min/kg
- renal clearance, Median ([5]; pig, in vivo): 0.0333 mL/min/kg
- bioavailability ([5]; pig, in vivo): 0.5%
- intestinal intrinsic clearance [6]: 7.22 mL/min/kg
- liver intrinsic clearance [6]: 61.2 mL/min/kg
